In general, Ki refers to a measure of affinity in units of concentration, obtained from inhibition or displacement.

Structures can show the parent of a compound that is named as a salt.

The target of this assay is T1, recombinant human GSK3β (Homo sapiens, UniProt P49841).
T1 construct: purchased Dundee University, UK
Briefly: GSK3β Scintillation Proximity Assay (ATP competition). The conditions noted are these: inhibition constants calculated with Km of ATP for GSK3β of 20 μM; 1 μM ATP, 1 μM biotinylated peptide substrate. The class given is biochemical. As to the method:
Determination of ATP Competition in Scintillation Proximity GSK3β Assay.
GSK3β Scintillation Proximity Assay.
The competition experiments were carried out in duplicate with 10 different concentrations of the inhibitors in clear-bottom microtiter plates (Wallac, Finland). A biotinylated peptide substrate, Biotin-Ala-Ala-Glu-Glu-Leu-Asp-Ser-Arg-Ala-Gly-Ser(PO3H2)-Pro-Gln-Leu (AstraZeneca, Lund), was added at a final concentration of 1 μM in an assay buffer containing 1 mU recombinant human GSK3β (Dundee University, UK), 12 mM morpholinepropanesulfonic acid (MOPS), pH 7.0, 0.3 mM EDTA, 0.01% β-mercaptoethanol, 0.004% Brij 35 (a […] detergent), 0.5% glycerol and 0.5 μg BSA/25 μl. The reaction was initiated by the addition of 0.04 μCi [γ-^33P]ATP (Amersham, UK) and unlabelled ATP at a final concentration of 1 μM and assay volume of 25 μl. After incubation for 20 minutes at room temperature, each reaction was terminated by the addition of 25 μl stop solution containing 5 mM EDTA, 50 μM ATP, 0.1% Triton X-100 and 0.25 mg streptavidin coated Scintillation Proximity Assay (SPA) beads (Amersham, UK). After 6 hours the radioactivity was determined in a liquid scintillation counter (1450 MicroBeta Trilux, Wallac). The inhibition curves were analysed by non-linear regression using GraphPad Prism, USA. The Km value of ATP for GSK3β, used to calculate the inhibition constants (Ki) of the various compounds, was 20 μM.

T1 sequence (P49841 whole entry): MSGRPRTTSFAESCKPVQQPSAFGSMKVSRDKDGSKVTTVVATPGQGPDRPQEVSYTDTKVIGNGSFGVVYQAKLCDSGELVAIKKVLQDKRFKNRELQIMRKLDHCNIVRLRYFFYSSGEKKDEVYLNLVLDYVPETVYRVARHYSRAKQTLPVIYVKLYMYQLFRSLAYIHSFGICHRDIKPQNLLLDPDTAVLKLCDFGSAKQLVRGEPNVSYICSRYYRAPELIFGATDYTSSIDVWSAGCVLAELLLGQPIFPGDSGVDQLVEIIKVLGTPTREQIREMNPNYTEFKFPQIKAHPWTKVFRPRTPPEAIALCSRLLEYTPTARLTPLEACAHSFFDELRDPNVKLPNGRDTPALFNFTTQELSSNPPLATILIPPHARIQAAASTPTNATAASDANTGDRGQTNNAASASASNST

Take `Cc1ncc(-c2nc(Nc3ccc(S(C)(=O)=O)cn3)ncc2F)n1C1CCOCC1` [Example 1, 5-Fluoro-N-[5-(methylsulfonyl)pyridin-2-yl]-4-[2-methyl-1-(tetrahydro-2H-pyran-4-yl)-1H-imidazol-5-yl]pyrimidin-2-amine hydrochloride]: the Ki was 468 nM. Turning to `Cc1ncc(-c2nc(Nc3ccc(S(C)(=O)=O)nc3)ncc2F)n1C1CCOCC1` [Example 2, 5-Fluoro-N-[6-(methylsulfonyl)pyridin-3-yl]-4-[2-methyl-1-(tetrahydro-2H-pyran-4-yl)-1H-imidazol-5-yl]pyrimidin-2-amine], the Ki is 40 nM.

In the case of `Cc1ncc(-c2nc(Nc3ccc(C(=O)N4CCN(C)CC4)cn3)ncc2F)n1C1CCOCC1` [Example 3, 5-Fluoro-N-{5-[(4-methylpiperazin-1-yl)carbonyl]pyridin-2-yl}-4-[2-methyl-1-(tetrahydro-2H-pyran-4-yl)-1H-imidazol-5-yl]pyrimidin-2-amine], the Ki is 661 nM. `Cc1ncc(-c2nc(Nc3ccc(C(=O)N4CCN(C)CC4)nc3)ncc2F)n1C1CCOCC1` [Example 4, 5-Fluoro-N-{6-[(4-methylpiperazin-1-yl)carbonyl]pyridin-3-yl}-4-[2-methyl-1-(tetrahydro-2H-pyran-4-yl)-1H-imidazol-5-yl]pyrimidin-2-amine]: the Ki is 63 nM. The figure for `Cc1ncc(-c2nc(Nc3ccc(C(=O)N4CCC4)nc3)ncc2F)n1C1CCOCC1` [Example 5, N-[6-(Azetidin-1-ylcarbonyl)pyridin-3-yl]-5-fluoro-4-[2-methyl-1-(tetrahydro-2H-pyran-4-yl)-1H-imidazol-5-yl]pyrimidin-2-amine] is 70 nM; for `CCOc1ccc(Nc2ncc(F)c(-c3cnc(C)n3C3CCOCC3)n2)cn1` [Example 10, (6-Ethoxy-pyridin-3-yl)-{5-fluoro-4-[2-methyl-3-(tetrahydro-pyran-4-yl)-3H-imidazol-4-yl]-pyrimidin-2-yl}-amine] it is 45 nM; for `COc1ncc(Nc2ncc(F)c(-c3cnc(C)n3C3CCOCC3)n2)cn1` [Example 11, {5-Fluoro-4-[2-methyl-3-(tetrahydro-pyran-4-yl)-3H-imidazol-4-yl]-pyrimidin-2-yl}-(2-methoxy-pyrimidin-5-yl)-amine] it is 60 nM.

On to `CCCN(C(=O)c1ccc(Nc2ncc(F)c(-c3cnc(C)n3C3CCOCC3)n2)cn1)C(C)CC` (stereo not drawn) [Example 12, N-Butan-2-yl-5-[[5-fluoro-4-[2-methyl-3-(oxan-4-yl)imidazol-4-yl]pyrimidin-2-yl]amino]-N-propyl-pyridine-2-carboxamide], for which the Ki is 29 nM.

For the compound `Cc1ncc(-c2nc(Nc3ccc(C(=O)N4CCC(F)(F)C4)nc3)ncc2F)n1C1CCOCC1` [Example 13, (3,3-Difluoropyrrolidin-1-yl)-[5-[[5-fluoro-4-[2-methyl-3-(oxan-4-yl)imidazol-4-yl]pyrimidin-2-yl]amino]pyridin-2-yl]methanone], the Ki was 34 nM. For `Cc1ncc(-c2nc(Nc3ccc(C(=O)N4CCCC(C)C4)nc3)ncc2F)n1C1CCOCC1` (stereo not drawn) [Example 14, [5-[[5-Fluoro-4-[2-methyl-3-(oxan-4-yl)imidazol-4-yl]pyrimidin-2-yl]amino]pyridin-2-yl]-(3-methyl-1-piperidyl)methanone], the Ki is 16 nM. In the case of `Cc1ncc(-c2nc(Nc3ccc(C(=O)N(C)C(C)C)nc3)ncc2F)n1C1CCOCC1` [Example 15, 5-[[5-Fluoro-4-[2-methyl-3-(oxan-4-yl)imidazol-4-yl]pyrimidin-2-yl]amino]-N-methyl-N-propan-2-yl-pyridine-2-carboxamide] it was 43 nM; in that of `Cc1ncc(-c2nc(Nc3ccc(C(=O)N4CCC(c5ccc(F)cc5)CC4)nc3)ncc2F)n1C1CCOCC1` [Example 16, [5-[[5-Fluoro-4-[2-methyl-3-(oxan-4-yl)imidazol-4-yl]pyrimidin-2-yl]amino]pyridin-2-yl]-[4-(4-fluorophenyl)-1-piperidyl]methanone], 9 nM. Regarding `CCN1CCN(C(=O)c2ccc(Nc3ncc(F)c(-c4cnc(C)n4C4CCOCC4)n3)cn2)CC1` [Example 17, (4-Ethylpiperazin-1-yl)-[5-[[5-fluoro-4-[2-methyl-3-(oxan-4-yl)imidazol-4-yl]pyrimidin-2-yl]amino]pyridin-2-yl]methanone], the inhibitory constant (Ki) is 50 nM. The figure for `CCCCN1CCN(C(=O)c2ccc(Nc3ncc(F)c(-c4cnc(C)n4C4CCOCC4)n3)cn2)CC1` [Example 18, (4-Butylpiperazin-1-yl)-[5-[[5-fluoro-4-[2-methyl-3-(oxan-4-yl)imidazol-4-yl]pyrimidin-2-yl]amino]pyridin-2-yl]methanone] is 47 nM. With `CCN(C(=O)c1ccc(Nc2ncc(F)c(-c3cnc(C)n3C3CCOCC3)n2)cn1)C(C)C` [Example 19, N-Ethyl-5-[[5-fluoro-4-[2-methyl-3-(oxan-4-yl)imidazol-4-yl]pyrimidin-2-yl]amino]-N-propan-2-yl-pyridine-2-carboxamide], the Ki was 25 nM. With `Cc1ncc(-c2nc(Nc3ccc(C(=O)N4CCCCC4)nc3)ncc2F)n1C1CCOCC1` [Example 20, [5-[[5-Fluoro-4-[2-methyl-3-(oxan-4-yl)imidazol-4-yl]pyrimidin-2-yl]amino]pyridin-2-yl]-(1-piperidyl)methanone], the Ki is 26 nM.

As for `Cc1ncc(-c2nc(Nc3ccc(C(=O)N4CCN(C(C)C)CC4)nc3)ncc2F)n1C1CCOCC1` [Example 21, [5-[[5-Fluoro-4-[2-methyl-3-(oxan-4-yl)imidazol-4-yl]pyrimidin-2-yl]amino]pyridin-2-yl]-(4-propan-2-ylpiperazin-1-yl)methanone], the Ki is 90 nM. The figure for `Cc1ncc(-c2nc(Nc3ccc(C(=O)N(C(C)C)C(C)C)nc3)ncc2F)n1C1CCOCC1` [Example 22, 5-[[5-Fluoro-4-[2-methyl-3-(oxan-4-yl)imidazol-4-yl]pyrimidin-2-yl]amino]-N,N-dipropan-2-yl-pyridine-2-carboxamide] is 67 nM; for `Cc1ncc(-c2nc(Nc3ccc(C(=O)N4C(C)CCCC4C)nc3)ncc2F)n1C1CCOCC1` (stereo not drawn) [Example 23, (2,6-Dimethyl-1-piperidyl)-[5-[[5-fluoro-4-[2-methyl-3-(oxan-4-yl)imidazol-4-yl]pyrimidin-2-yl]amino]pyridin-2-yl]methanone] it is 41 nM; for `CCCN(CCC)C(=O)c1ccc(Nc2ncc(F)c(-c3cnc(C)n3C3CCOCC3)n2)cn1` [Example 24, 5-[[5-Fluoro-4-[2-methyl-3-(oxan-4-yl)imidazol-4-yl]pyrimidin-2-yl]amino]-N,N-dipropyl-pyridine-2-carboxamide] it is 24 nM.

With `COC1CCN(C(=O)c2ccc(Nc3ncc(F)c(-c4cnc(C)n4C4CCOCC4)n3)cn2)CC1` [Example 25, [5-[[5-Fluoro-4-[2-methyl-3-(oxan-4-yl)imidazol-4-yl]pyrimidin-2-yl]amino]pyridin-2-yl]-(4-methoxy-1-piperidyl)methanone], the Ki is 28 nM. In the case of `CCN(C)C(=O)c1ccc(Nc2ncc(F)c(-c3cnc(C)n3C3CCOCC3)n2)cn1` [Example 26, N-Ethyl-5-[[5-fluoro-4-[2-methyl-3-(oxan-4-yl)imidazol-4-yl]pyrimidin-2-yl]amino]-N-methyl-pyridine-2-carboxamide] it was 31 nM; in that of `Cc1ncc(-c2nc(Nc3ccc(C(=O)N4CCC(C)CC4)nc3)ncc2F)n1C1CCOCC1` [Example 27, [5-[[5-Fluoro-4-[2-methyl-3-(oxan-4-yl)imidazol-4-yl]pyrimidin-2-yl]amino]pyridin-2-yl]-(4-methyl-1-piperidyl)methanone], 28 nM; in that of `Cc1ncc(-c2nc(Nc3ccc(C(=O)N4CCN(Cc5ccccc5)CC4)nc3)ncc2F)n1C1CCOCC1` [Example 28, (4-Benzylpiperazin-1-yl)-[5-[[5-fluoro-4-[2-methyl-3-(oxan-4-yl)imidazol-4-yl]pyrimidin-2-yl]amino]pyridin-2-yl]methanone], 19 nM. In the case of `Cc1ncc(-c2nc(Nc3ccc(C(=O)N4CCC(F)(F)CC4)nc3)ncc2F)n1C1CCOCC1` [Example 29, (4,4-Difluoro-1-piperidyl)-[5-[[5-fluoro-4-[2-methyl-3-(oxan-4-yl)imidazol-4-yl]pyrimidin-2-yl]amino]pyridin-2-yl]methanone] it was 34 nM; in that of `Cc1ncc(-c2nc(Nc3ccc(C(=O)N(Cc4ccccc4)C(C)C)nc3)ncc2F)n1C1CCOCC1` [Example 30, N-Benzyl-5-[[5-fluoro-4-[2-methyl-3-(oxan-4-yl)imidazol-4-yl]pyrimidin-2-yl]amino]-N-propan-2-yl-pyridine-2-carboxamide], 17 nM; in that of `Cc1ncc(-c2nc(Nc3ccc(C(=O)N(C)CC(C)C)nc3)ncc2F)n1C1CCOCC1` [Example 31, 5-[[5-Fluoro-4-[2-methyl-3-(oxan-4-yl)imidazol-4-yl]pyrimidin-2-yl]amino]-N-methyl-N-(2-methylpropyl)pyridine-2-carboxamide], 12 nM.

These data come from patent US20080188502A1, “New Compounds I” (AstraZeneca AB, priority 2006, published 2008).
